These results are taken from patent publication US20040096941A1, “Receptor for plant cell growth factor” (priority 2002, published 2004).

Usually Kd stands for the concentration at which binding is half-saturated. A lower Kd goes with higher affinity.

The target of assay [1] is T1, PSK receptor (120-kD receptor kinase) (Daucus carota, UniProt Q8LPB4).
T1 construct: The inserted portion (i.e., full length cDNA) in the positive phage was subcloned to pBS vector; expressed in transfected cells; host or cells: transgenic carrot cells (sense transformant, pBI121, CaMV 35S promoter); membrane fraction
T1 sequence (Q8LPB4 25-1021): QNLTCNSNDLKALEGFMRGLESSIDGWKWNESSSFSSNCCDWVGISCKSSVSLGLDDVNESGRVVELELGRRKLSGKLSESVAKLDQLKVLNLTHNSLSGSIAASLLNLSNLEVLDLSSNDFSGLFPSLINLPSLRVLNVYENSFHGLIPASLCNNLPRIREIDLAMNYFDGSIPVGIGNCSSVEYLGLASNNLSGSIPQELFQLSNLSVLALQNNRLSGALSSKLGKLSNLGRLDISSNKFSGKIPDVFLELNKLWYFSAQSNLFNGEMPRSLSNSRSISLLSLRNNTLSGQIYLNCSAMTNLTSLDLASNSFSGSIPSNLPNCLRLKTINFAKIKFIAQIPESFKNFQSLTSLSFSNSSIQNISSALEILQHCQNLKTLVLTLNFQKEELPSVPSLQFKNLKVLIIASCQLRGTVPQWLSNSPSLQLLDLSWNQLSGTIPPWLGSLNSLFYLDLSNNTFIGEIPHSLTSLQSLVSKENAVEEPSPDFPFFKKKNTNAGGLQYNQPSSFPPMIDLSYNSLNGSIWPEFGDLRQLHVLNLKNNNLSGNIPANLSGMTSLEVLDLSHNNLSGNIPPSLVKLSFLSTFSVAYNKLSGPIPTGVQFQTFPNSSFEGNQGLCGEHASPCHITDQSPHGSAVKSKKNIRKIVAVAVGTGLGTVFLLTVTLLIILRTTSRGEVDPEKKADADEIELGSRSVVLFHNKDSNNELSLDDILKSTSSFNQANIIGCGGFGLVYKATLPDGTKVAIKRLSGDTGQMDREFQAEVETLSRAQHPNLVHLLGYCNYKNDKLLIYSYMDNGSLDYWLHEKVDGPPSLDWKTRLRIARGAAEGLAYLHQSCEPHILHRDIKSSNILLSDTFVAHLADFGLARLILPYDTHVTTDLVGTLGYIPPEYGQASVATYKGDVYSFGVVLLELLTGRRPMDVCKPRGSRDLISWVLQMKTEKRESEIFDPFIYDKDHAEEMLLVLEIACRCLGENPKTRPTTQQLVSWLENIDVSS
Put plainly: inhibition of [3H]PSK binding to the membrane fraction of the sense transformant by unlabelled competitors. Also on record: species or system carrot. Particulars: 6.3 nM [3H]PSK, 3.2 μM unlabelled competitor. On the procedure:
The specificity of the PSK binding activity was characterized by comparing the relative binding affinity for several PSK analogs. […] The membrane proteins were incubated in binding buffer containing 6.3 nM [^3H]PSK and 3.2 μM of the competitor .

The test system of assay [2] is transgenic carrot cells overexpressing the receptor protein (sense transformants). Put plainly: callus growth of transgenic carrot cells in response to PSK. The class given is cell-based. The following applies: 10 nM PSK, 3 weeks on B5 media with NAA 1.0 mg/liter and 6-BA 0.5 mg/liter. On the procedure: The chimeric genes were composed of the receptor kinase ORF, in the sense or antisense orientation, under the control of the constitutive cauliflower mosaic virus 35S promoter incorporated within the binary vector pBI 121. Transformation of carrot hypocotyl segments and plant regeneration were performed following a protocol described elsewhere (M. Hardegger, A. Sturm, Mol. Breed. 4, 119 (1998)). Carrot cells transformed with the binary vector alone were used as controls. Analysis of variance of the growth data was carried out using the Student's t-test procedure of the Prism software (GraphPad Software).
The cDNA of the aforementioned protein was overexpressed in transgenic carrot cells, in sense orientation, under the control of the cauliflower mosaic virus 35S promoter. […] These phenotypes are consistent with the hypothesis that overexpression and antisense inhibition of this receptor protein alter the responsive property of carrot cells to PSK. FIGS. 6A to 6C show the callus growth of the sense transformants, the control cells, and antisense transformants exposed to 10 nM PSK, respectively. The transformed carrot cells and the control cells were cultured for 3 weeks on B5 media containing naphthaleneacetic acid (NAA, 1.0 mg/liter), 6-benzylamino purine (6-BA, 0.5 mg/liter), and 10 nM PSK. The scale bar in FIG. 6C represents 1 cm.

In assay [3] the target is T1, PSK receptor (120-kD receptor kinase). The assay is described as follows: specific binding of PSK to membrane fractions, Scatchard plot. Also on record: species or system carrot.
Assay [4] concerns the target PSK receptor protein (120-kD receptor kinase of carrot) (carrot) (UniProt Q8LPB4). Put plainly: [3H]PSK saturation binding to membrane fractions of control carrot cells (endogenous receptor), Scatchard plot.
Assay [5] has the same target. Put plainly: [3H]PSK saturation binding to membrane fractions of sense transformants, Scatchard plot.
For assay [6], the target named is T2, PSK receptor protein (120-kD receptor kinase of carrot) (carrot, UniProt Q8LPB4 25-1021, N-linked oligosaccharide chains of approximately 10 kD (cleaved by PNGase F)).
T2 construct: Assayed in membrane fractions of carrot cells (sense transformants overexpressing the ORF; control cells with the endogenous protein) or solubilized from carrot NC cell microsomal membranes; also called phytosulfokine receptor; 120-kD protein
T2 sequence: T1 sequence (Q8LPB4 25-1021)
Put plainly: affinity chromatography on [Lys5]PSK-Sepharose, elution with PSK, SDS-PAGE. On the procedure:
Carrot microsomal membranes (1,200 mg protein) were solubilized in 320 ml of buffer containing 20 mM HEPES-KOH (pH 7.5), 50 mM KCl, and 1.0% Triton X-100 (buffer A). Solubilized materials were centrifuged at 100,000 g for 30 min at 4° C., and supernatants were applied to the [Lys⁵]PSK-Sepharose column (5.0 ml) at a flow rate of 0.5 ml/min using the AKTA prime chromatography system (Amersham Pharmacia Biotech). After washing with 50 ml of buffer containing 20 mM HEPES-KOH (pH 7.5), 50 mM KCl, and 0.1% Triton X-100 (buffer B), the column was eluted with 15 ml of 1.0 mg/ml PSK in buffer B. The eluates were added to a 1.0-ml column of Macro-Prep Ceramic Hydroxyapatite Type I (Bio-Rad laboratories) at a flow rate of 0.5 ml/min at 4° C. The column was washed with 20 ml of buffer B and eluted with a 18-ml gradient of KH₂PO₄ (0 to 400 mM) in buffer B. Active fractions (12 ml), as determined by [³H]PSK binding assay, were concentrated by ultrafiltration (Ultrafree-15 with Biomax-10 membranes, Millipore) and analyzed by SDS-PAGE using 7.5% gels (Y. Matsubayashi, Y. Sakagami, Eur. J. Biochem. 262, 666 (1999)).
The PSK-binding proteins were purified with [Lys⁵] PSK-Sepharose column. The purified proteins were further purified by hydroxyapatite column chromatography, concentrated and subjected to SDS-PAGE and Nile red staining.

The mark [7] stands for this setting: membrane fractions of control cells (binary vector alone).
Setting [8] is: membrane fractions of sense transformant.

Square brackets hold non-standard residues; d marks the D form. Side chains are listed from the residue outwards. Ends that are not written are not given here. Peptide text beside a SMILES is read from it. sY = N[C@@H](Cc1ccc(OS(=O)(=O)O)cc1)C(=O)O; Ahx = NCCCCCC(=O)O

On to `CC[C@H](C)[C@H](NC(=O)[C@@H](N)Cc1ccc(OS(=O)(=O)O)cc1)C(=O)N[C@@H](Cc1ccc(OS(=O)(=O)O)cc1)C(=O)N[C@H](C(=O)N[C@@H](CCC(N)=O)C(=O)O)[C@@H](C)O` [PSK, phytosulfokine] (H-[sY]I[sY]TQ-OH; N-terminus and C-terminus assumed), for which the “inhibition of binding of [3H]PSK to the membrane fraction of the sense transformant” value in assay [1] was “strongly inhibited”. For the same molecule, the “callus growth in response to PSK, compared with control cells” value in assay [2] is recorded as “accelerated growth”. Further, in assay [3] (setting [7]), the “Bmax (maximum number of binding sites)” value is recorded as 34±2 fmol per mg of membrane protein and binding was characterised by a dissociation constant (Kd) of 4.8 ± 1.1 nM. Besides, in assay [3] (setting [8]), the “Bmax (maximum number of binding sites)” value is 570±18 fmol per mg of membrane protein and binding was put at a Kd of 4.1 ± 0.5 nM.

For the molecule “[1-4]PSK: less active analog of PSK (YIYT)”, the “inhibition of binding of [3H]PSK to the membrane fraction of the sense transformant” value in assay [1] is on record as “less strongly inhibited”.

With phytosulfokine (PSK) (peptide), the Bmax (fmol per mg of membrane protein) in assay [4] was 34; in assay [5], 570.

[sY]I[sY]TK([Ahx-Ahx-Ahx-Sepharose]) (also: Lys5 side chain coupled via Ahx spacer to Sepharose) [[Lys5]PSK-Sepharose]: the binding result in assay [6] is “binds”.
